Among the test systems are A549 NSCLC; COLO 205 colon; HCC-2998 colon; HOP-62 NSCLC; HOP-92 NSCLC; M14 melanoma; MALME-3M melanoma; MOLT-4 leukemia; OVCAR-3 ovarian; U251 CNS; IGROV1 ovarian; OVCAR-8 ovarian; SK-OV-3 ovarian; SNB-75 CNS; PC-3 prostate.
Assay in all cases: inhibition of tumour cell growth, NCI panel, 48 h

Each structure is given as a SMILES string.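 How tested: cells in 96-well plates exposed to compound for 48 hours at five concentrations. TGI: total growth inhibition.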

Turning to `CCCn1c(SCC)c2ccccc2c1-c1nc(F)nc(F)n1`, the TGI in the assay with A549 NSCLC, in the assay on COLO 205 colon, in the assay on HCC-2998 colon, in the assay with HOP-62 NSCLC, in the assay on HOP-92 NSCLC and with M14 melanoma was more than 100 µM throughout. Also, the TGI in the assay with MALME-3M melanoma, with MOLT-4 leukemia, in the assay on OVCAR-3 ovarian and in the assay on U251 CNS was more than 100 µM throughout.

With `CCCC/C=C/C1Cc2ccccc2CN1S(=O)(=O)c1ccc(C)cc1` (configuration not stated), the TGI in the assay on A549 NSCLC was 26.3 µM; in the assay with COLO 205 colon it was 22 µM; in the assay with HCC-2998 colon, 25.3 µM; with HOP-62 NSCLC, more than 100 µM; with HOP-92 NSCLC it was 8.82 µM; with IGROV1 ovarian, 26.9 µM. Besides, the TGI with M14 melanoma is 26 µM; in the assay on MALME-3M melanoma, more than 100 µM; in the assay on MOLT-4 leukemia it was 53.3 µM; in the assay on OVCAR-3 ovarian, 24.1 µM; in the assay with OVCAR-8 ovarian, 28.6 µM; in the assay on SK-OV-3 ovarian, 90.6 µM. In addition, the values for the TGI in the assay with SNB-75 CNS and in the assay with U251 CNS were 37.5 µM and 39.3 µM, respectively.

As to `CC(C)(C)NN=C1C(C)(C)C(=NNC(C)(C)C)C1(C)C`, the TGI in the assay on A549 NSCLC, in the assay on COLO 205 colon, with HCC-2998 colon, in the assay with HOP-62 NSCLC, with HOP-92 NSCLC and with IGROV1 ovarian was more than 100 µM throughout. Besides, the TGI in the assay on M14 melanoma, in the assay on MALME-3M melanoma, with MOLT-4 leukemia, with OVCAR-3 ovarian, with OVCAR-8 ovarian and in the assay on SK-OV-3 ovarian was more than 100 µM in each case. For the same compound, the TGI in the assay with SNB-75 CNS and with U251 CNS was more than 100 µM throughout.

Turning to `COC(=O)C(CCCC1(c2ccccc2)OCCO1)C(C)=O` (configuration not stated), the TGI in the assay with A549 NSCLC, with COLO 205 colon, in the assay with HCC-2998 colon, in the assay with HOP-62 NSCLC, with IGROV1 ovarian and in the assay with M14 melanoma was more than 100 µM throughout. For the same compound, the TGI in the assay with MALME-3M melanoma, in the assay with MOLT-4 leukemia, in the assay on OVCAR-3 ovarian, in the assay on OVCAR-8 ovarian, in the assay on SK-OV-3 ovarian and in the assay with SNB-75 CNS was more than 100 µM in each case. Besides, the TGI in the assay on U251 CNS was more than 100 µM.

Regarding `CCCCc1c2c(nc3c1CCCC3O)/C(=C/c1ccccc1)CCC2` (configuration not stated), the TGI was more than 100 µM in the assay with A549 NSCLC; 33.4 µM in the assay with COLO 205 colon; 24.3 µM in the assay on HCC-2998 colon; more than 100 µM in the assay on HOP-62 NSCLC; more than 100 µM with HOP-92 NSCLC; more than 100 µM with IGROV1 ovarian. Besides, the TGI with M14 melanoma is 53.8 µM; with MALME-3M melanoma, 44.8 µM; with MOLT-4 leukemia, 38.7 µM; with OVCAR-3 ovarian, 35.9 µM; with OVCAR-8 ovarian, more than 100 µM; with SK-OV-3 ovarian it was more than 100 µM. The TGI with SNB-75 CNS was more than 100 µM; in the assay with U251 CNS, 64.1 µM.

For `Cc1cn(C2CCC(/C=N\O)O2)c(=O)[nH]c1=O` (configuration not stated), the TGI with A549 NSCLC, with COLO 205 colon, in the assay with HCC-2998 colon, in the assay on HOP-62 NSCLC, in the assay on HOP-92 NSCLC and with IGROV1 ovarian was more than 100 µM throughout. Further, the TGI in the assay on M14 melanoma, in the assay with MOLT-4 leukemia, with OVCAR-3 ovarian, in the assay on OVCAR-8 ovarian, in the assay with PC-3 prostate and in the assay on SNB-75 CNS was more than 100 µM in each case. In the assay on U251 CNS, this compound displayed a TGI of more than 100 µM.

With `CC(OC(=O)NCn1cc(-c2ccccc2)nn1)c1ccccc1` (configuration not stated), the TGI in the assay with A549 NSCLC, in the assay on COLO 205 colon, in the assay on HCC-2998 colon, in the assay on HOP-62 NSCLC, in the assay on HOP-92 NSCLC and in the assay on IGROV1 ovarian was more than 100 µM each time. Further, the TGI with M14 melanoma was 34.9 µM; in the assay with MALME-3M melanoma, 89.9 µM; in the assay on MOLT-4 leukemia, 47.4 µM; in the assay on OVCAR-8 ovarian it was more than 100 µM; in the assay on PC-3 prostate, 5.23 µM; in the assay with U251 CNS, more than 100 µM.

As to `CC(=O)O/N=C/c1ncccc1OC(C)=O`, the TGI in the assay on A549 NSCLC, in the assay on COLO 205 colon, in the assay with HOP-62 NSCLC, in the assay with HOP-92 NSCLC, with IGROV1 ovarian and in the assay with M14 melanoma was more than 100 µM throughout. In addition, the TGI in the assay on MALME-3M melanoma, in the assay on MOLT-4 leukemia, in the assay with OVCAR-3 ovarian, in the assay with OVCAR-8 ovarian, in the assay with SK-OV-3 ovarian and in the assay on SNB-75 CNS was more than 100 µM each time. In the assay with U251 CNS, the TGI was more than 100 µM.

Take `CCCc1c(OC)c(=O)c2c(OC)cc(OC)c3c4c(OC)cc(OC)c5c(=O)c(OC)c(CCC)c(c1c23)c54`: the TGI was 43.7 µM in the assay with A549 NSCLC; 27.2 µM in the assay with COLO 205 colon; 38.7 µM in the assay with HCC-2998 colon; 33 µM with HOP-62 NSCLC; 23.4 µM in the assay on HOP-92 NSCLC; 34.8 µM in the assay on IGROV1 ovarian. Besides, the TGI in the assay on M14 melanoma came out at 30.6 µM; in the assay with MOLT-4 leukemia, 35 µM; with OVCAR-3 ovarian, 31.8 µM; in the assay on OVCAR-8 ovarian, 40.8 µM; in the assay on SK-OV-3 ovarian, 30.4 µM; in the assay on SNB-75 CNS, 36 µM. In the assay with U251 CNS, this compound came in with a TGI of 29.6 µM.

Regarding `CCCN(CCCC(NC(C)=O)C(=O)NCc1ccccc1)C(=O)NC` (configuration not stated), the TGI with A549 NSCLC, with COLO 205 colon, with HCC-2998 colon, with HOP-62 NSCLC, in the assay with HOP-92 NSCLC and in the assay with IGROV1 ovarian was more than 100 µM each time. Also, the TGI in the assay with M14 melanoma, in the assay on MALME-3M melanoma, in the assay with MOLT-4 leukemia, in the assay with OVCAR-3 ovarian, in the assay with OVCAR-8 ovarian and with SK-OV-3 ovarian was more than 100 µM each time. Further, the TGI with SNB-75 CNS is 75.3 µM; with U251 CNS it was more than 100 µM.

As to `COc1cc(C2c3cc4c(cc3OC(Nc3ccc(C(=O)O)cc3)C2C)OCO4)cc(OC)c1OC` (configuration not stated), the TGI in the assay on A549 NSCLC is more than 47.5 µM; in the assay with COLO 205 colon, 0.518 µM; in the assay on HCC-2998 colon, 0.853 µM; in the assay on HOP-62 NSCLC it was more than 100 µM; with HOP-92 NSCLC, more than 74.6 µM; in the assay with IGROV1 ovarian, more than 100 µM. Further, the TGI in the assay on M14 melanoma was 31.8 µM; in the assay with MOLT-4 leukemia, 25.8 µM; with OVCAR-8 ovarian, more than 100 µM; in the assay with PC-3 prostate, more than 100 µM; in the assay with SNB-75 CNS it was 3.53 µM; in the assay with U251 CNS, 30 µM.

The record behind these values is PubChem BioAssay (NCI).
